Reference: patent US7456167B2, “Cyclopropyl fused indolobenzazepine HCV NS5B inhibitors” (Bristol-Myers Squibb Company, priority 2006, dated 2008)
Read-outs that look alike come from different tables or passages of the source.

Columns and labels:
[1] = target: T1, HCV NS5B RdRp genotype 1b (Hepatitis C virus genotype 1b, UniProt Q9WMX2); assay: Modified HCV NS5B RdRp enzyme assay (preincubation protocol); type: biochemical
T1 construct: The protein was expressed with an 18 amino acid C-terminal truncation to enhance the solubility; made in house; host or cells: E. coli BL21(DE3)
Experimental: HCV NS5B RdRp cloning, expression, and purification. The cDNA encoding the NS5B protein of HCV, genotype 1b, was cloned into the pET21a expression vector. The protein was expressed with an 18 amino acid C-terminal truncation to enhance the solubility. The E. coli competent cell line BL21(DE3) was used for expression of the protein. Cultures were grown at 37° C. for ˜4 hours until the cultures reached an optical density of 2.0 at 600 nm. The cultures were cooled to 20° C. and induced with 1 mM IPTG. Fresh ampicillin was added to a final concentration of 50 μg/ml and the cells were grown overnight at 20° C.
Cell pellets (3 L) were lysed for purification to yield 15-24 mgs of purified NS5B. The lysis buffer consisted of 20 mM Tris-HCl, pH 7.4, 500 mM NaCl, 0.5% triton X-100, 1 mM DTT, 1 mM EDTA, 20% glycerol, 0.5 mg/ml lysozyme, 10 mM MgCl2, 15 ug/ml deoxyribonuclease I, and Complete TM protease inhibitor tablets (Roche). After addition of the lysis buffer, frozen cell pellets were resuspended using a tissue homogenizer. To reduce the viscosity of the sample, aliquots of the lysate were sonicated on ice using a microtip attached to a Branson sonicator. The sonicated lysate was centrifuged at 100,000×g for 1 hr at 4° C. and filtered through a 0.2 μm filter unit (Corning).
The protein was purified using three sequential chromatography steps: Heparin sepharose CL-6B, polyU sepharose 4B, and Hitrap SP sepharose (Pharmacia). The chromatography buffers were identical to the lysis buffer but contained no lysozyme, deoxyribonuclease I, MgCl2 or protease inhibitor and the NaCl concentration of the buffer was adjusted according to the requirements for charging the protein onto the column. Each column was eluted with a NaCl gradient which varied in length from 5-50 column volumes depending on the column type. After the final chromatography step, the resulting purity of the enzyme is >90% based on SDS-PAGE analysis. The enzyme was aliquoted and stored at −80° C.
Standard HCV NS5B RdRp enzyme assay. HCV RdRp genotype 1b assays were run in a final volume of 60 μl in 96 well plates (Costar 3912). The assay buffer is composed of 20 mM Hepes, pH 7.5, 2.5 mM KCl, 2.5 mM MgCl2, 1 mM DTT, 1.6 U RNAse inhibitor (Promega N2515), 0.1 mg/ml BSA (Promega R3961), and 2% glycerol. All compounds were serially diluted (3-fold) in DMSO and diluted further in water such that the final concentration of DMSO in the assay was 2%. HCV RdRp genotype 1b enzyme was used at a final concentration of 28 nM. A polyA template was used at 6 nM, and a biotinylated oligo-dT12 primer was used at 180 nM final concentration. Template was obtained commercially (Amersham 27-4110). Biotinylated primer was prepared by Sigma Genosys. 3H-UTP was used at 0.6 μCi (0.29 μM total UTP). Reactions were initiated by the addition of enzyme, incubated at 30° C. for 60 min, and stopped by adding 25 μl of 50 mM EDTA containing SPA beads (4 μg/μl, Amersham RPNQ 0007). Plates were read on a Packard Top Count NXT after >1 hr incubation at room temperature.
Modified HCV NS5B RdRp enzyme assay. A modified enzyme assay was performed essentially as described for the standard enzyme assay except for the following: The biotinylated oligo dT12 primer was precaptured on streptavidin-coated SPA beads by mixing primer and beads in assay buffer and incubating at room temperature for one hour. Unbound primer was removed after centrifugation. The primer-bound beads were resuspended in 20 mM Hepes buffer, pH 7.5 and used in the assay at final concentrations of 20 nM primer and 0.67 μg/μl beads. Order of addition in the assay: enzyme (14 nM) was added to diluted compound followed by the addition of a mixture of template (0.2 nM), 3H-UTP (0.6 μCi, 0.29 μM), and primer-bound beads, to initiate the reaction; concentrations given are final. Reactions were allowed to proceed for 4 hours at 30° C.
IC50 values for compounds were determined using seven different [I]. […]

HCV replicon cells = assay: HCV replicon FRET assay; type: cell-based; details: Hepatitis C virus
Excerpt: FRET Assay Preparation. To perform the HCV FRET screening assay, 96-well cell culture plates were used. The FRET peptide (Anaspec, Inc.) (Taliani et al., Anal. Biochem. 1996, 240, 60-67) contains a fluorescence donor, EDANS, near one end of the peptide and an acceptor, DABCYL, near the other end. The fluorescence of the peptide is quenched by […] resonance energy transfer (RET) between the donor and the acceptor, but as the NS3 protease cleaves the peptide the products are released from RET quenching and the fluorescence of the donor becomes apparent. The assay reagent was made as follows: 5× cell Luciferase cell culture lysis reagent from Promega (#E153A) diluted to 1× with dH2O, NaCl added to 150 mM final, the FRET peptide diluted to 20 uM final from a 2 mM stock.
To prepare plates, HCV replicon cells, with or without a Renilla luciferase reporter gene, were trypsinized and placed into each well of a 96-well plate with titrated test compounds added in columns 3 through 12; columns 1 and 2 contained a control compound (HCV protease inhibitor), and the bottom row contained cells without compound. The plates were then placed in a CO2 incubator at 37° C.
Assays. Subsequent to addition of the test compounds described above (FRET Assay Preparation), at various times the plate was removed and Alamar blue solution (Trek Diagnostics, #00-100) was added per well as a measure of cellular toxicity. After reading in a Cytoflour 4000 instrument (PE Biosystems), plates were rinsed with PBS and then used for FRET assay by the addition of 30 ul of the FRET peptide assay reagent described above (FRET Assay Preparation) per well. The plate was then placed into the Cytoflour 4000 instrument which had been set to 340 excite/490 emission, automatic mode for 20 cycles and the plate read in a kinetic mode. Typically, the signal to noise using an endpoint analysis after the reads was at least three-fold. Alternatively, after Alamar blue reading, plates were rinsed with PBS, 50 ul of DMEM (high glucose) without phenol red was added and plates were then used for luciferase assay using the Promega Dual-Glo Luciferase Assay System.
Compound analysis was determined by quantification of the relative HCV replicon inhibition and the relative cytotoxicity values. To calculate cytoxicity values, the average Alamar Blue fluorescence signals from the control wells were set as 100% non-toxic. The individual signals in each of the compound test wells were then divided by the average control signal and multiplied by 100% to determine […]. To calculate the HCV replicon inhibition values, an average background value was obtained from the two wells containing the highest amount of HCV protease inhibitor at the end of the assay period. These numbers were similar to those obtained from naïve Huh-7 cells.
The background numbers were then subtracted from the average signal obtained from the control wells and this number was used as 100% activity. The individual signals in each of the compound test wells were then divided by the averaged control values after background subtraction and multiplied by 100% to determine percent activity. EC50 values for a protease inhibitor titration were calculated as the concentration which caused a 50% reduction in FRET or luciferase activity. The two numbers generated for the compound plate, percent cytoxicity and percent activity were used to determine compounds of interest for further analysis.

[2] = HCV NS5B RdRp genotype 1b, preincubation protocol, read-out: IC50
[3] = HCV replicon cells, FRET assay, read-out: EC50

T1 sequence (Q9WMX2 2420-2992): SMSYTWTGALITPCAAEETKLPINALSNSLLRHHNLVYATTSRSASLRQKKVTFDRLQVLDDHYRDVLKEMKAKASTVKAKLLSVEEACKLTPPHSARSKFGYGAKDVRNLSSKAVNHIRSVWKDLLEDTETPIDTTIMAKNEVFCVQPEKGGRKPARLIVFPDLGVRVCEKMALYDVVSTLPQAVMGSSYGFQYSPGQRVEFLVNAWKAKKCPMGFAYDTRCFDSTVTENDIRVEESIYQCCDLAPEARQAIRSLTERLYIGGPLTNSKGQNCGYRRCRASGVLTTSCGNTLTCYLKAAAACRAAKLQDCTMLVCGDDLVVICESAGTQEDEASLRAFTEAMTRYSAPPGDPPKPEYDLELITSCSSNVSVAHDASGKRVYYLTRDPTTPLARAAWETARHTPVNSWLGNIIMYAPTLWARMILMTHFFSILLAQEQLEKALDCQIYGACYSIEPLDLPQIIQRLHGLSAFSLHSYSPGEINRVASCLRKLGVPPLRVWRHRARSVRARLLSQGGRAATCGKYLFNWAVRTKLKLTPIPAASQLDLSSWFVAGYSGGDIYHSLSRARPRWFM

Compound	IC50 [1, 2]	EC50 (HCV replicon cells; [3])	IC50 [1]	EC50 (HCV replicon cells)
COc1ccc2c(c1)CC(S(=O)(=O)CCN(C)C)Cn1c-2c(C2CCCCC2)c2ccc(C(=O)NS(=O)(=O)N(C)C)cc21 (stereo not drawn)	20 to 1000 nM	20 to 1000 nM		
COc1ccc2c(c1)CC(S(=O)(=O)CCN1CCOCC1)Cn1c-2c(C2CCCCC2)c2ccc(C(=O)NS(=O)(=O)N(C)C)cc21 (stereo not drawn)	20 to 1000 nM	20 to 1000 nM		
COc1ccc2c(c1)C1CC1(S(=O)(=O)N1C3CCC1CN(C)C3)Cn1c-2c(C2CCCCC2)c2ccc(C(=O)O)cc21 (stereo not drawn)			20 to 1000 nM	20 to 1000 nM
COc1ccc2c(c1)C1CC1(S(=O)(=O)N1C3CCC1CN(C)C3)Cn1c-2c(C2CCCCC2)c2ccc(C(=O)NS(=O)(=O)N(C)C)cc21 (stereo not drawn)			20 to 1000 nM	20 to 1000 nM
COc1ccc2c(c1)C1CC1(S(=O)(=O)N1C3CCC1CC(C)(O)C3)Cn1c-2c(C2CCCCC2)c2ccc(C(=O)NS(=O)(=O)C(C)C)cc21 (stereo not drawn)			20 to 1000 nM	20 to 1000 nM
COc1ccc2c(c1)C1CC1(S(=O)(=O)N1C3CCC1CC(C)(O)C3)Cn1c-2c(C2CCCCC2)c2ccc(C(=O)NS(=O)(=O)N3CCOCC3)cc21 (stereo not drawn)			20 to 1000 nM	20 to 1000 nM
COc1ccc2c(c1)C1CC1(S(=O)(=O)N1C3CCC1CC(C)(O)C3)Cn1c-2c(C2CCCCC2)c2ccc(C(=O)NS(=O)(=O)N(C)C)cc21 (stereo not drawn)			20 to 1000 nM	20 to 1000 nM
COC[C@@H]1CN(S(=O)(=O)C23CC2c2cc(OC)ccc2-c2c(C4CCCCC4)c4ccc(C(=O)NS(=O)(=O)N5CCOCC5)cc4n2C3)CCO1 (stereo partly drawn)	20 to 1000 nM	20 to 1000 nM		
COc1ccc2c(c1)C1CC1(S(=O)(=O)N1CCN3CCCC3C1)Cn1c-2c(C2CCCCC2)c2ccc(C(=O)NS(=O)(=O)C(C)C)cc21 (stereo not drawn)	20 to 1000 nM	20 to 1000 nM		
COc1ccc2c(c1)C1CC1(S(=O)(=O)N1CCN3CCCC3C1)Cn1c-2c(C2CCCCC2)c2ccc(C(=O)NS(=O)(=O)N(C)C)cc21 (stereo not drawn)	20 to 1000 nM	20 to 1000 nM		
COc1ccc2c(c1)C1CC1(S(=O)(=O)N1CCC[C@H]3CN(Cc4ccccc4)C[C@H]31)Cn1c-2c(C2CCCCC2)c2ccc(C(=O)NS(=O)(=O)N3CCOCC3)cc21 (stereo partly drawn)	20 to 1000 nM	20 to 1000 nM		
COc1ccc2c(c1)C1CC1(S(=O)(=O)N1CC[C@@H](N(C)C)C1)Cn1c-2c(C2CCCCC2)c2ccc(C(=O)NS(=O)(=O)C(C)C)cc21 (stereo partly drawn)	20 to 1000 nM	20 to 1000 nM		
COc1ccc2c(c1)C1CC1(S(=O)(=O)N1CC[C@@H](N(C)C)C1)Cn1c-2c(C2CCCCC2)c2ccc(C(=O)NS(=O)(=O)N3CCOCC3)cc21 (stereo partly drawn)	20 to 1000 nM	20 to 1000 nM		
COc1ccc2c(c1)C1CC1(S(=O)(=O)N1CC[C@@H](N(C)C)C1)Cn1c-2c(C2CCCCC2)c2ccc(C(=O)NS(=O)(=O)N(C)C)cc21 (stereo partly drawn)	20 to 1000 nM	20 to 1000 nM		
COc1ccc2c(c1)C1CC1(S(=O)(=O)N1CCC1)Cn1c-2c(C2CCCCC2)c2ccc(C(=O)NS(=O)(=O)C(C)C)cc21 (stereo not drawn)	20 to 1000 nM	20 to 1000 nM		
COc1ccc2c(c1)C1CC1(S(=O)(=O)N1CCCC1)Cn1c-2c(C2CCCCC2)c2ccc(C(=O)NS(=O)(=O)C(C)C)cc21 (stereo not drawn)	20 to 1000 nM	20 to 1000 nM		
COc1ccc2c(c1)C1CC1(S(=O)(=O)N1C3CCC1CC3)Cn1c-2c(C2CCCCC2)c2ccc(C(=O)NS(=O)(=O)C(C)C)cc21 (stereo not drawn)			20 to 1000 nM	20 to 1000 nM
COc1ccc2c(c1)C1CC1(S(=O)(=O)N1CCN3CCC1CC3)Cn1c-2c(C2CCCCC2)c2ccc(C(=O)NS(=O)(=O)N3CCOCC3)cc21 (stereo not drawn)	20 to 1000 nM	20 to 1000 nM		
COc1ccc2c(c1)C1CC1(S(=O)(=O)N1CCCC1)Cn1c-2c(C2CCCCC2)c2ccc(C(=O)NS(=O)(=O)N3CCOCC3)cc21 (stereo not drawn)	20 to 1000 nM	20 to 1000 nM		
CCN(C)S(=O)(=O)NC(=O)c1ccc2c(C3CCCCC3)c3n(c2c1)CC1(S(=O)(=O)N2C[C@@H](C)N(C)[C@@H](C)C2)CC1c1cc(OC)ccc1-3 (stereo partly drawn)	20 to 1000 nM	20 to 1000 nM		
COc1ccc2c(c1)C1CC1(S(=O)(=O)N1C[C@@H](C)N(C)[C@@H](C)C1)Cn1c-2c(C2CCCCC2)c2ccc(C(=O)NS(=O)(=O)N3CCC3)cc21 (stereo partly drawn)	20 to 1000 nM	20 to 1000 nM		
COc1ccc2c(c1)C1CC1(S(=O)(=O)N1C[C@@H](C)N(C)[C@@H](C)C1)Cn1c-2c(C2CCCCC2)c2ccc(C(=O)NS(=O)(=O)N3CCCC3)cc21 (stereo partly drawn)	20 to 1000 nM	20 to 1000 nM		
COc1ccc2c(c1)C1CC1(S(=O)(=O)N1C[C@@H](C)N(C)[C@@H](C)C1)Cn1c-2c(C2CCCCC2)c2ccc(C(=O)NS(=O)(=O)N3CCOCC3)cc21 (stereo partly drawn)	20 to 1000 nM	20 to 1000 nM		
COc1ccc2c(c1)C1CC1(S(=O)(=O)N1C[C@@H](C)N(C)[C@@H](C)C1)Cn1c-2c(C2CCCCC2)c2ccc(C(=O)NS(=O)(=O)N3CCN(C)CC3)cc21 (stereo partly drawn)	20 to 1000 nM	20 to 1000 nM		
